Test results from patent US4568490A, “Aminopropylaminobleomycin derivatives and process for preparation thereof” (Zaidan Hojin Biseibutsu Kagaku Kenkyu Kai, priority 1981, dated 1986).

Assays:
[1] = test system: CDF1 /SLC strain male mice; assay: Acute toxicity, LD50 on 10 consecutive days; format: in vivo; settings: subcutaneous, Behrens-Karber method
Method: LD50 was assayed by administering several representative compounds of this invention for 10 consecutive days.
CDF1 /SLC strain male mice (each 6 weeks old, 7 members per group) were subcutaneously administered with various compounds of this invention, the dose being different with each compound. LD50 (daily dose) was estimated from the mortality during the administration period by the Behrens-Karber method.

[2] = test system: Hela S3 cells; assay: Growth inhibitory activity against Hela S3 cells; format: cell-based; settings: Cu-free form; Hela S3, 3 days incubation with compound
Method: The percentage growth inhibition was calculated using the equation: […] wherein A is the ultimate number of cells on the third day from the addition of a test sample, B is the ultimate number of cells in the control (without the addition of test sample), and C is the number of cells on the day of addition of the test sample.

[3] = test system: Lymphocytic leukemia P-388; assay: In vivo antitumor activity, murine lymphocytic leukemia P-388; settings: BDF1-SLC mice, i.p. transplant, once daily for 9 days, 30 days observation; T/C more than 130 effective
Method: The following data with respect to the testing of a group of the presently claimed substances in vivo according to a standard test method involving murine lymphocytic leukemia P-388 is presented to lend further assurance as to the utility of the compounds as inhibitors of mammalian tumors.
Lymphocytic leukemia P-388 cells (1×10^5 /0.2 ml) were transplanted intraperitoneally into male BDF1 -SLC mice (5 mice/group). Each of the compounds of this invention was diluted with physiological saline to various concentrations. Each dilution was administered at a dose of 0.1 ml/10 g of body weight once daily for 9 days, starting on the day after the day of the transplantation. The mice of the control group were administered physiological saline.
The average number of days that the group receiving the compound of this invention survived was calculated. The figure obtained was divided by the average number of survival days for the control group, and was multiplied by 100 (T/C (%)).
T/C value more than 130 was considered to be effective.

[4] = test system: Bacillus subtilis; assay: Antimicrobial activity, agar plate-cylinder method; format: cell-based; settings: Cu-free form; bleomycin A2 (Cu-free form) standard assumed 1,000 mcg/mg
Method: (1) Antimicrobial activity against Mycobacterium smegmatis ATCC 697 and Bacillus subtilis.
(§1) The activity was assayed against the above test microorganisms by the method of agar plate-cylinder, assuming the potency of bleomycin A2 (Cu-free form), used as standard, to be 1,000 mcg/mg.

[5] = test system: Mycobacterium smegmatis ATCC 607; assay: Antimicrobial activity, agar plate-cylinder method; format: cell-based; settings: Cu-free form; bleomycin A2 (Cu-free form) standard assumed 1,000 mcg/mg
Method: as §1

[6] = test system: ICR strain mice; assay: Pulmonary toxicity (pulmonary fibrosis) in mice, intraperitoneal injection; format: in vivo; settings: 5 mg/kg i.p. once a day for 10 days; for Grade of pulmonary fibrosis, % / Incidence of pulmonary fibrosis, % / Incidence: number of mice suffering from pulmonary fibrosis / Grade: total score of pulmonary fibrosis/total number of test animal: autopsy after 5 weeks; for Incidence: number of mice suffering from pulmonary fibrosis: affected/total mice; for Grade: total score of pulmonary fibrosis/total number of test animal: score 0-6 points; for Grade of pulmonary fibrosis, Ratio / Incidence of pulmonary fibrosis, Ratio: reference of the ratio not stated
How it was run: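 Male ICR mice, 15 weeks old, 9 per group, received 5 mg/kg intraperitoneally once daily for 10 days. They were autopsied after 5 weeks' observation for pulmonary fibrosis incidence and grade: 1, alveolar exudate/septal fibrosis-like change; 2, fibrosis in several areas; 4, scattered fibrosis; 6, fibrosis over >2/3 of area.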

[7] = test system: ICR mice; assay: Pulmonary toxicity (pulmonary fibrosis) in mice, intratracheal instillation; format: in vivo; settings: 16 μg/50 μl/mouse intratracheally, sacrificed 4 weeks after instillation

Row | Compound | LD50 (daily dose) [1] [mg/kg/day] | 50% growth inhibition concentration (ID50) of Cu--free compound against cultured Hela cell [2] [µg/mL] | Max. T/C on Mouse Lymphocytic Leukemia P 388 [3] [%] | Antimicrobial potency of Cu--free compound, against Bacillus subtilis [4] [mcg potency per mg] | Antimicrobial potency of Cu--free compound, against Mycobacterium smegmatis ATCC 607 [5] [mcg potency per mg] | Grade of pulmonary fibrosis, % [6] [%] | Incidence of pulmonary fibrosis, % [6] [%] | Incidence: number of mice suffering from pulmonary fibrosis [6] | Grade: total score of pulmonary fibrosis/total number of test animal [6] | Grade of pulmonary fibrosis, Ratio [6] | Incidence of pulmonary fibrosis, Ratio [6] | Grade of pulmonary fibrosis, % [7] [%] | Incidence of pulmonary fibrosis, % [7] [%] | Incidence: number of mice with pulmonary fibrosis/number of mice [7] | Grade: total score of pulmonary fibrosis/total number of samples ([7]; score 0-6 points)
1 | CC[N+](CC)(CCCNC(=O)c1csc(-c2csc(CCNC(=O)C(NC(=O)C(C)C(O)C(C)NC(=O)C(NC(=O)c3nc(C(CC(N)=O)NCC(N)C(N)=O)nc(N)c3C)C(OC3OC(CO)C(O)C(O)C3OC3OC(CO)C(O)C(OC(N)=O)C3O)c3cnc[nH]3)C(C)O)n2)n1)CCCN(Cc1ccccc1)Cc1ccccc1 (stereo not drawn) [Compound No. 37, 3-[N,N-diethyl-N-(3'-dibenzylamino)propyl]aminopropylaminobleomycin] | 50.0 | 0.70 | 168 | 1047 | 10680 | – | – | – | – | – | – | – | – | – | –
2 | Cc1c(N)nc(C(CC(N)=O)NCC(N)C(N)=O)nc1C(=O)NC(C(=O)NC(C)C(O)C(C)C(=O)NC(C(=O)NCCc1nc(-c2nc(C(=O)NCCCN(C)CCCNCC3CCCCCCCCCC3)cs2)cs1)C(C)O)C(OC1OC(CO)C(O)C(O)C1OC1OC(CO)C(O)C(OC(N)=O)C1O)c1cnc[nH]1 (stereo not drawn) [Compound No. 32, 3-{N--Methyl-N--[3'-(cycloundecanylmethylamino)propyl]amino}propylaminoBLM] | 17.5 | 0.58 | 166 | 8146 | 28308 | 0 | 0 | 0/9 | 0/27 | 0.00 | 0.00 | – | – | – | –
3 | Cc1c(N)nc(C(CC(N)=O)NCC(N)C(N)=O)nc1C(=O)NC(C(=O)NC(C)C(O)C(C)C(=O)NC(C(=O)NCCc1nc(-c2nc(C(=O)NCCC[N+](C)(CCCN(Cc3ccccc3)Cc3ccccc3)Cc3ccccc3)cs2)cs1)C(C)O)C(OC1OC(CO)C(O)C(O)C1OC1OC(CO)C(O)C(OC(N)=O)C1O)c1cnc[nH]1 (stereo not drawn) [compound 39, 3-{N--Methyl-N--benzyl-N--[3'-(dibenzylamino)propyl]amino}propylaminoBLM] | – | 2.30 | 163 | 580 | 7746 | 0 | 0 | 0/9 | 0/27 | 0.00 | 0.00 | 15 | 22 | 2/9 | 4/27
